From patent publication US8569327B2, “Phenanthroindolizidine derivative and NFκB inhibitor containing same as active ingredient” (Kabushiki Kaisha Yakult Honsha, priority 2008, dated 2013)
Marks after values point to notes of the source that are not given here.

What was measured:
[1] = system: mouse fibrosarcoma Meth A cells; assay: Antitumor effect in mice transplanted with mouse fibrosarcoma Meth A cells; assay type: in vivo; details: intravenous on days 1, 5, 9, tumor weight day 21, BALB/c mice
Experimental: The antitumor effect of the phenanthroindolizidine alkaloid compound of the present invention in vivo was studied using mice transplanted with mouse fibrosarcoma Meth A cells. Meth A cells were transplanted subcutaneously in the inguinal region of male 7-week-old BALB/c mice (2.5×10^5 cells/mouse). Subsequently, on days 1, 5, and 9, the compound of the present invention was intravenously administered. To a control group, physiological saline, a solvent, was administered. On day 21 after the cell transplantation, tumor was excised and measured for its weight, and subsequently a tumor growth-inhibition rate IR (%) was obtained by the following formula. Tumor growth-inhibition rate IR (%)=(1−the weight of the tumor in an administration group/the weight of the tumor in a control group)×100

[2] = system: SV40 promoter; assay: SV40 promoter activity, luciferase assay in SW480/SV40-Luc cells; assay type: cell-based, human; details: for SV40 promoter inhibitory activity IC50: SW480/SV40-Luc cells, luciferase; for IC50: Homo sapiens, SW480, read-out: SV40 promoter inhibitory activity IC50
In short: (§1)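 Stable SW480 colon cancer lines carried luciferase driven by a 5× NFκB response element or by the SV40 promoter. Compound was added 1 h before 50 ng/mL TNFα, followed by 4 h culture at 37 °C; luminescence was read and IC50 taken as 50% inhibition of induced luciferase expression.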

[3] = system: mice transplanted with mouse fibrosarcoma Meth A cells; assay: Animal toxicity test; assay type: in vivo; details: intravenous days 1, 5, 9, observed three weeks
Experimental: Also, the toxicity of known phenanthroindolizidine alkaloid compounds, namely (12aS,13S)-6,7-dimethoxy-9,10,11,12,12a,13-hexahydro-9a-aza-cyclopenta[b]triphenylene-3,13-diol (known compound 1; refer to WO01/023384) and (12aS,13S)-3,6,7-trimethoxy-9,10,11,12,12a,13-hexahydro-9a-aza-cyclopenta[b]triphenylene-13-ol (known compound 2; refer to Planta Med., 2002, 68: 186-188), was simultaneously studied. To a control group, a physiological saline solution, a solvent, was administered. As a result, as shown in the following Tables 35 and 36, all the mice survived in a group administered with the compound of the present invention.

[4] = system: human non-small cell lung cancer A549 cells; assay: Inhibitory action on the proliferation of A549 cells; assay type: cell-based; details: 96 hours, TetraColor ONE; for IC50: Homo sapiens, A549
In short: (§2)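 Cells seeded overnight (SW480 2000/well in 10% FBS/RPMI1640; A549, HT-29 1000/well in 10% FBS DMEM or DMEM F12 HAM), then compound-treated at 37 °C, 5% CO2 for 48 h (SW480) or 96 h (A549, HT-29). Viable cells counted by TetraColor ONE; IC50 for 50% proliferation inhibition.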

[5] = system: human colon cancer SW480 cells; assay: Inhibitory action on the proliferation of SW480 cells; assay type: cell-based; details: 48 hours, TetraColor ONE; for IC50: Homo sapiens, SW480
In short: as §2

[6] = system: NFκB; assay: Inhibitory action on the NFκB activity, luciferase assay in SW480/NRE-Luc cells; assay type: cell-based, human; details: for NFκB inhibitory activity IC50: SW480/NRE-Luc cells, compound 1 h then 50 ng/mL TNFα 4 h, luciferase; for IC50: Homo sapiens, SW480, read-out: NFκB inhibitory activity IC50
In short: as §1

[7] = system: human colon cancer HT-29 cells; assay: Inhibitory action on the proliferation of HT-29 cells; assay type: cell-based; details: 96 hours, TetraColor ONE; for IC50: Homo sapiens, HT-29
In short: as §2

[8] = Solubility of the salts
Description: In in vivo studies, each compound was used in the form of a salt.

[9] = system: human colon cancer HCT116 cells; assay: Antitumor effect in mice transplanted with human colon cancer HCT116 cells; assay type: in vivo, mouse; details: intraperitoneal days 1-5 and 8-12, tumor weight day 21, BALB/c nude mice
Description: The antitumor effect of the phenanthroindolizidine alkaloid compound of the present invention in vivo was studied using mice transplanted with human colon cancer HCT116 cells. HCT116 cells were transplanted subcutaneously in the inguinal region of male 6-week-old BALB/c nude mice (2×10^6 cells/mouse). On days 1 to 5 and on days 8 to 12 after the time at which the estimated tumor volume obtained by ½ab^2 (a and b indicate the major axis and the minor axis of tumor, respectively) reached approximately 100 mm^3 (day 0), the compound of the present invention was administered (intraperitoneal administration). To a control group, a 5% glucose solution, a solvent, was administered. On day 21, tumor was excised and measured for its weight, and subsequently a tumor proliferation-inhibition rate IR (%) was calculated.

[10] = aqueous solution of 5% glucose, saline or isotonic

Structure (SMILES) | Tumor growth inhibition rate IR ([1]; total dose 25 mg/kg) [%] | Tumor growth inhibition rate IR ([1]; total dose 50 mg/kg) | SV40 promoter inhibitory activity IC50 [2] [ng/mL] | Mortality rate ([3]; total dose 25 mg/kg) | Mortality rate ([3]; total dose 50 mg/kg) | A549 proliferation inhibitory action IC50 [4] [ng/mL] | SW480 proliferation inhibitory action IC50 [5] [ng/mL] | NFκB inhibitory activity IC50 [6] [ng/mL] | HT-29 proliferation inhibitory action IC50 [7] [ng/mL] | IC50 [2] [ng/mL] | IC50 [4] [ng/mL] | IC50 [5] [ng/mL] | IC50 [6] [ng/mL] | IC50 [7] [ng/mL] | solubility [8, 10] [mg/mL] | Tumor growth inhibition rate IR ([9]; total dose 100 mg/kg) | solubility ([8]; in an aqueous solution of 5% glucose, salt form) [mg/mL] | Tumor growth inhibition rate IR ([9]; total dose 200 mg/kg) | Tumor growth inhibition rate IR ([9]; total dose 50 mg/kg)
COc1cc2c3c(c4ccc(OC(=O)c5ccco5)cc4c2cc1OC)[C@H](O)[C@@H]1CCCN1C3.Cl [Compound 20, furan-2-carboxylic acid(12aS,13S)-13-hydroxy-6,7-dimethoxy-9,10,11,12,12a,13-hexahydro-9a-aza-cyclopenta[b]triphenylene-3-yl ester hydrochloride] | 36.7 | 53.0* % | >100 | 0/5 | 0/5 | 0.42 | 0.67 | 0.46 | 0.76 | – | – | – | – | – | – | – | – | – | –
COc1cc2c3c(c4cccc(O)c4c2cc1OC)C[C@@H]1CCCN1C3.Cl [Compound 40, (S)-6,7-dimethoxy-9,10,11,12,12a,13-hexahydro-9a-aza-cyclopenta[b]triphenylene-4-ol hydrochloride] | 25.8 | 45.1* % | – | 0/5 | 0/5 | – | – | – | – | > 1000 | 3.3 | 4 | 2.4 | 67.9 | – | – | – | – | –
COc1cc2c3c(c4cccc(O)c4c2cc1OC)[C@H](O)[C@@H]1CCCN1C3.CS(=O)(=O)O [Compound 43, (12aS,13S)-6,7-dimethoxy-9,10,11,12,12a,13-hexahydro-9a-aza-cyclopenta[b]triphenylene-4,13-diol methanesulfonate] | – | – | – | – | – | – | – | – | – | > 1000 | 4.4 | 6.2 | 2.7 | 100 | 11.2 | – | – | – | –
COc1cc2c3c(c4ccc(F)cc4c2cc1OC)C[C@@H]1CCCN1C3.CS(=O)(=O)O [Compound 44, (S)-3-fluoro-6,7-dimethoxy-9,10,11,12,12a,13-hexahydro-9a-aza-cyclopenta[b]triphenylene methanesulfonate] | – | – | – | – | – | – | – | – | – | > 1000 | 6 | 64.9 | 36.8 | 12.8 | 10.3 | 30.7** % | – | – | –
COc1cc2c3c(c4ccc(OC(C)=O)cc4c2cc1OC)C[C@@H]1CCCN1C3.CS(=O)(=O)O [Compound 45, acetic acid(S)-6,7-dimethoxy-9,10,11,12,12a,13-hexahydro-9a-aza-cyclopenta[b]triphenylene-3-yl ester methanesulfonate] | – | – | >100 | – | – | 0.64 | 0.76 | 0.41 | 1.5 | – | – | – | – | – | – | – | 9.7 | 34.7** % | –
COC(=O)CCC(=O)Oc1ccc2c3c(c4cc(OC)c(OC)cc4c2c1)CN1CCC[C@H]1C3.CS(=O)(=O)O [Compound 46, succinic acid(S)-6,7-dimethoxy-9,10,11,12,12a,13-hexahydro-9a-aza-cyclopenta[b]triphenylene-3-yl ester methyl ester methanesulfonate] | – | – | >1000 | – | – | 1.2 | 0.36 | 0.13 | 2.1 | – | – | – | – | – | – | – | – | 34.6** % | –
COc1cc2c3c(c4ccc(NC(C)=O)cc4c2cc1OC)C[C@@H]1CCCN1C3.CS(=O)(=O)O [Compound 56, N-((S)-6,7-dimethoxy-9,10,11,12,12a,13-hexahydro-9a-aza-cyclopenta[b]triphenylene-3-yl)-acetamide methanesulfonate] | – | – | – | – | – | – | – | – | – | > 10 | 2.2 | 4.8 | 2.9 | 2.4 | – | 68.9** % | – | – | 39.1** %
